In patent US20050019420A1, “Fungicide composition comprising pyrimethanil and at least a phosphorous acid derivative and use thereof for fighting against plant diseases” (priority 2001, published 2005):

Tested on: Venturia inaequalis
Experiment: Apple tree scab field trial, preventive spray programme
Assay type: in vivo
Settings: for % of leaves attacked: apple tree Rome Beauty
Excerpt: Apple Tree—Venturia inaequalis
The following fungicides are compared: • Pyrimethanil at the dose of 20 g/hl and mixtures. • fosetyl-Al+pyrimethanil at the doses of 50+20 and 100+20 g/hl applied in a plant protection mixture volume of 1 200 l/ha.
The products are applied to an apple tree (Rome Beauty variety) which is sensitive to Venturia inaequalis.
The various products to be studied are sprayed every 7, 10 or 13 days (9, 7 and 6 applications in total respectively) in a program of treatment starting on 28 Mar. 2001.
Scores are awarded for the disease (% foliar surface area destroyed) on 14 May and 11 Jun. 2001. The results are expressed as % of leaves attacked.

Structure (SMILES)	% of leaves attacked (dose (20), sprayed every 7 days (9 applications), scored 11 June 2001) [%]	% of leaves attacked (dose (20), sprayed every 7 days (9 applications), scored 14 May 2001) [%]	% of leaves attacked (dose (200), sprayed every 10 days (7 applications), scored 11 June 2001) [%]	% of leaves attacked (dose (200), sprayed every 10 days (7 applications), scored 14 May 2001) [%]	% of leaves attacked (dose (200), sprayed every 13 days (6 applications), scored 11 June 2001) [%]	% of leaves attacked (dose (200), sprayed every 13 days (6 applications), scored 14 May 2001) [%]	persistence of the action of pyrimethanil (addition of fosetyl-Al to pyrimethanil, applications every 10 to 13 days compared with weekly applications)
Cc1cc(C)nc(Nc2ccccc2)n1 [Pyrimethanil, pyrimethanil]	27.7	14.7	33	16.2	32	16.3	–
CCO[PH](=O)O [fosetyl-AI, monoethyl ester-phosphonate-aluminum]	–	–	–	–	–	–	improve the persistence of the action of pyrimethanil
